Experimental data as given in patent US10479819B2 (priority 2014, dated 2019).
Non-standard residues stand in square brackets, D forms with d. Residues, ends and D or L forms follow the SMILES beside them. Groups on a side chain read outwards from the residue. *: point of attachment. C18 diacid = O=C(O)CCCCCCCCCCCCCCCCC(=O)*; PEG2 = NCCOCCOCCC(=O)O; Aib = CC(C)(N)C(=O)O

Legend:
human GLP-1R = target: T1, human GLP-1R (Homo sapiens, UniProt P43220); experiment: In vitro activity on GLP-1R, CRE-luciferase HEK-293 cells; type: cell-based; settings: ratio of EC50 GLP-1R to EC50 GCGR
T1 construct: expressed in transfected cells
Experimental: 5000 of HEK-293 cells, which are used in CRE-luciferase system and express human GCGR or GLP-1R stably, were inoculated into 384 well plates according to […] DMEM/10% FBS media/well. […] After incubation, […] of luciferase reagent was added directly to each plate and mixed gently for 2 minutes. The plates were placed into an Elmer Perkin plate reader for reading. Concentration curve of the compound was made by drawing software Prism 5, and the EC50 value was calculated.

male C57B1/6J mice = experiment: Oral glucose tolerance test in male C57B1/6J mice; type: in vivo; settings: 250 μg/kg
Experimental: 12-16 week-old male C57B1/6J mice (Nanjing University model animal research center) were randomly divided into groups 8 in each group, according to similar blood glucose (assessed by the blood samples obtained from the tail tip). After fasting (for 6 hours), the animals were administrated, and about 4 hours later, initial blood samples (fasting blood glucose level) were taken. Subsequently, the animals were administrated with an oral dose of glucose, and then put back into their cages (t=0). Blood glucose was measured at t=15 minutes, t=30 minutes, t=60 minutes, t=90 minutes and t=120 minutes. And then the animals were administrated with an oral dose of glucose again, and blood glucose was tracked until 8 hours.

T1 sequence (P43220 24-463): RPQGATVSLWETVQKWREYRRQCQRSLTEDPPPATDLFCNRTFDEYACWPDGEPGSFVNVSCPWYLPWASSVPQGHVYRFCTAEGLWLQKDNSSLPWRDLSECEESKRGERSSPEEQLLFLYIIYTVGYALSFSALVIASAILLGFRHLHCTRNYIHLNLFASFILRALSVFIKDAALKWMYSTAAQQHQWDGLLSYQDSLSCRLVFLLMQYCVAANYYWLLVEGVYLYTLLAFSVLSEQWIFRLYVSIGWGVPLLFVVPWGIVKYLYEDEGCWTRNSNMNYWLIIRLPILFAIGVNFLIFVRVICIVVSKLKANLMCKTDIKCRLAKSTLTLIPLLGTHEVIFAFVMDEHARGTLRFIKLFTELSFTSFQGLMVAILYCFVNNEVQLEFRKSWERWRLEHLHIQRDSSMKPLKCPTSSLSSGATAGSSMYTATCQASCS

## CCCCCCCCCCCCCCCC(=O)N[C@@H](CCC(=O)NCCOCCOCCC(=O)NCCOCCOCCC(=O)NCCCC[C@H](NC(=O)[C@H](CC(=O)O)NC(=O)[C@H](CC(C)C)NC(=O)[C@H](Cc1ccc(O)cc1)NC(=O)[C@H](CCCCN)NC(=O)[C@H](CO)NC(=O)[C@H](Cc1ccc(O)cc1)NC(=O)[C@H](CC(=O)O)NC(=O)[C@H](CO)NC(=O)[C@@H](NC(=O)[C@H](Cc1ccccc1)NC(=O)[C@@H](NC(=O)CNC(=O)[C@H](CCC(N)=O)NC(=O)[C@@H](CO)NC(=O)[C@@H](N)Cc1c[nH]cn1)[C@@H](C)O)[C@@H](C)O)C(=O)N[C@@H](CCCNC(=N)N)C(=O)N[C@@H](CCCNC(=N)N)C(=O)N[C@@H](C)C(=O)N[C@@H](CCC(N)=O)C(=O)N[C@@H](CC(=O)O)C(=O)N[C@@H](Cc1ccccc1)C(=O)N[C@H](C(=O)N[C@@H](CCC(N)=O)C(=O)N[C@@H](Cc1c[nH]c2ccccc12)C(=O)N[C@@H](CC(C)C)C(=O)N[C@@H](CCSC)C(=O)N[C@@H](CC(N)=O)C(=O)N[C@H](C(=O)NCC(=O)NCC(=O)N1CCC[C@H]1C(=O)N[C@@H](CO)C(=O)N[C@@H](CO)C(=O)NCC(=O)N[C@@H](C)C(=O)N1CCC[C@H]1C(=O)N1CCC[C@H]1C(=O)N1CCC[C@H]1C(=O)N[C@@H](CO)C(N)=O)[C@@H](C)O)C(C)C)C(=O)O [Compound 10]
Human GLP-1R
  GLP-1R/GCGR: 3.3

## CSCC[C@H](NC(=O)[C@H](CC(C)C)NC(=O)[C@H](Cc1c[nH]c2ccccc12)NC(=O)[C@H](CCC(N)=O)NC(=O)[C@@H](NC(=O)[C@H](Cc1ccccc1)NC(=O)[C@H](CC(=O)O)NC(=O)[C@H](CCC(N)=O)NC(=O)[C@H](C)NC(=O)[C@H](CCCNC(=N)N)NC(=O)[C@H](CCCCNC(=O)CCOCCOCCNC(=O)CCOCCOCCNC(=O)CCCCCCCCCCCCCCCCC(=O)O)NC(=O)C(C)(C)NC(=O)[C@H](CC(=O)O)NC(=O)[C@H](CC(C)C)NC(=O)[C@H](Cc1ccc(O)cc1)NC(=O)[C@H](CCCCN)NC(=O)[C@H](CO)NC(=O)[C@H](Cc1ccc(O)cc1)NC(=O)[C@H](CC(=O)O)NC(=O)[C@H](CO)NC(=O)[C@@H](NC(=O)[C@H](Cc1ccccc1)NC(=O)[C@@H](NC(=O)CNC(=O)[C@H](CCC(N)=O)NC(=O)[C@@H](CO)NC(=O)[C@@H](N)Cc1c[nH]cn1)[C@@H](C)O)[C@@H](C)O)C(C)C)C(=O)N[C@@H](CC(N)=O)C(=O)N[C@H](C(=O)NCC(=O)NCC(=O)N1CCC[C@H]1C(=O)N[C@@H](CO)C(=O)N[C@@H](CO)C(=O)NCC(=O)N[C@@H](C)C(=O)N1CCC[C@H]1C(=O)N1CCC[C@H]1C(=O)N1CCC[C@H]1C(=O)N[C@@H](CO)C(N)=O)[C@@H](C)O [Compound 12] (H-H[dS]QGTFTSDYSKYLD[Aib]K([PEG2-PEG2-C18 diacid])RAQDFVQWLMNTGGPSSGAPPPS-NH2; N-terminus assumed)
Human GLP-1R
  GLP-1R/GCGR: 2.1

## CCCCCCCCCCCCCCCC(=O)N[C@@H](CCC(=O)NCCOCCOCCC(=O)NCCOCCOCCC(=O)NCCCC[C@H](NC(=O)C(C)(C)NC(=O)[C@H](CC(=O)O)NC(=O)[C@H](CC(C)C)NC(=O)[C@H](Cc1ccc(O)cc1)NC(=O)[C@H](CCCCN)NC(=O)[C@H](CO)NC(=O)[C@H](Cc1ccc(O)cc1)NC(=O)[C@H](CC(=O)O)NC(=O)[C@H](CO)NC(=O)[C@@H](NC(=O)[C@H](Cc1ccccc1)NC(=O)[C@@H](NC(=O)CNC(=O)[C@H](CCC(N)=O)NC(=O)[C@@H](CO)NC(=O)[C@@H](N)Cc1c[nH]cn1)[C@@H](C)O)[C@@H](C)O)C(=O)N[C@@H](CCCNC(=N)N)C(=O)N[C@@H](C)C(=O)N[C@@H](CCC(N)=O)C(=O)N[C@@H](CC(=O)O)C(=O)N[C@@H](Cc1ccccc1)C(=O)N[C@H](C(=O)N[C@@H](CCC(N)=O)C(=O)N[C@@H](Cc1c[nH]c2ccccc12)C(=O)N[C@@H](CC(C)C)C(=O)N[C@@H](CCSC)C(=O)N[C@@H](CC(N)=O)C(=O)N[C@H](C(=O)NCC(=O)NCC(=O)N1CCC[C@H]1C(=O)N[C@@H](CO)C(=O)N[C@@H](CO)C(=O)NCC(=O)N[C@@H](C)C(=O)N1CCC[C@H]1C(=O)N1CCC[C@H]1C(=O)N1CCC[C@H]1C(=O)N[C@@H](CO)C(N)=O)[C@@H](C)O)C(C)C)C(=O)O [Compound 13]
Human GLP-1R
  GLP-1R/GCGR: 2.8

## CSCC[C@H](NC(=O)[C@H](CC(C)C)NC(=O)[C@H](Cc1c[nH]c2ccccc12)NC(=O)[C@H](CCC(N)=O)NC(=O)[C@@H](NC(=O)[C@H](Cc1ccccc1)NC(=O)[C@H](CC(=O)O)NC(=O)[C@H](CCC(N)=O)NC(=O)[C@H](C)NC(=O)[C@H](CCCNC(=N)N)NC(=O)[C@H](CCCCNC(=O)CCOCCOCCNC(=O)CCOCCOCCNC(=O)CC[C@H](NC(=O)CCCCCCCCCCCCCCCCC(=O)O)C(=O)O)NC(=O)C(C)(C)NC(=O)[C@H](CC(=O)O)NC(=O)[C@H](CC(C)C)NC(=O)[C@H](Cc1ccc(O)cc1)NC(=O)[C@H](CCCCN)NC(=O)[C@H](CO)NC(=O)[C@H](Cc1ccc(O)cc1)NC(=O)[C@H](CC(=O)O)NC(=O)[C@H](CO)NC(=O)[C@@H](NC(=O)[C@H](Cc1ccccc1)NC(=O)[C@@H](NC(=O)CNC(=O)[C@H](CCC(N)=O)NC(=O)[C@@H](CO)NC(=O)[C@@H](N)Cc1c[nH]cn1)[C@@H](C)O)[C@@H](C)O)C(C)C)C(=O)N[C@@H](CC(N)=O)C(=O)N[C@H](C(=O)NCC(=O)NCC(=O)N1CCC[C@H]1C(=O)N[C@@H](CO)C(=O)N[C@@H](CO)C(=O)NCC(=O)N[C@@H](C)C(=O)N1CCC[C@H]1C(=O)N1CCC[C@H]1C(=O)N1CCC[C@H]1C(=O)N[C@@H](CO)C(N)=O)[C@@H](C)O [Compound 14]
Human GLP-1R
  GLP-1R/GCGR: 2.1

## CCCCCCCCCCCCCCCC(=O)NCCOCCOCCC(=O)NCCOCCOCCC(=O)NCCCC[C@H](NC(=O)[C@H](CO)NC(=O)[C@H](Cc1ccc(O)cc1)NC(=O)[C@H](CC(=O)O)NC(=O)[C@H](CO)NC(=O)[C@@H](NC(=O)[C@H](Cc1ccccc1)NC(=O)[C@@H](NC(=O)CNC(=O)[C@H](CCC(N)=O)NC(=O)[C@@H](CO)NC(=O)[C@@H](N)Cc1c[nH]cn1)[C@@H](C)O)[C@@H](C)O)C(=O)N[C@@H](CCCCN)C(=O)N[C@@H](CC(C)C)C(=O)N[C@@H](CC(=O)O)C(=O)NC(C)(C)C(=O)N[C@@H](CCCNC(=N)N)C(=O)N[C@@H](CCCNC(=N)N)C(=O)N[C@@H](C)C(=O)N[C@@H](CCC(N)=O)C(=O)N[C@@H](CC(=O)O)C(=O)N[C@@H](Cc1ccccc1)C(=O)N[C@H](C(=O)N[C@@H](CCC(N)=O)C(=O)N[C@@H](Cc1c[nH]c2ccccc12)C(=O)N[C@@H](CC(C)C)C(=O)N[C@@H](CCSC)C(=O)N[C@@H](CC(N)=O)C(=O)N[C@H](C(=O)NCC(=O)NCC(=O)N1CCC[C@H]1C(=O)N[C@@H](CO)C(=O)N[C@@H](CO)C(=O)NCC(=O)N[C@@H](C)C(=O)N1CCC[C@H]1C(=O)N1CCC[C@H]1C(=O)N1CCC[C@H]1C(=O)N[C@@H](CO)C(N)=O)[C@@H](C)O)C(C)C [Compound 15]
Human GLP-1R
  GLP-1R/GCGR: 2.5

## CSCC[C@H](NC(=O)[C@H](CC(C)C)NC(=O)[C@H](Cc1c[nH]c2ccccc12)NC(=O)[C@H](CCC(N)=O)NC(=O)[C@@H](NC(=O)[C@H](Cc1ccccc1)NC(=O)[C@H](CC(=O)O)NC(=O)[C@H](CCC(N)=O)NC(=O)[C@H](C)NC(=O)[C@H](CCCNC(=N)N)NC(=O)[C@H](CCCNC(=N)N)NC(=O)C(C)(C)NC(=O)[C@H](CC(=O)O)NC(=O)[C@H](CC(C)C)NC(=O)[C@H](CCCCN)NC(=O)[C@H](CCCCNC(=O)CCOCCOCCNC(=O)CCOCCOCCNC(=O)CCCCCCCCCCCCCCCCC(=O)O)NC(=O)[C@H](CO)NC(=O)[C@H](Cc1ccc(O)cc1)NC(=O)[C@H](CC(=O)O)NC(=O)[C@H](CO)NC(=O)[C@@H](NC(=O)[C@H](Cc1ccccc1)NC(=O)[C@@H](NC(=O)CNC(=O)[C@H](CCC(N)=O)NC(=O)[C@@H](CO)NC(=O)[C@@H](N)Cc1c[nH]cn1)[C@@H](C)O)[C@@H](C)O)C(C)C)C(=O)N[C@@H](CC(N)=O)C(=O)N[C@H](C(=O)NCC(=O)NCC(=O)N1CCC[C@H]1C(=O)N[C@@H](CO)C(=O)N[C@@H](CO)C(=O)NCC(=O)N[C@@H](C)C(=O)N1CCC[C@H]1C(=O)N1CCC[C@H]1C(=O)N1CCC[C@H]1C(=O)N[C@@H](CO)C(N)=O)[C@@H](C)O [Compound 16]
Human GLP-1R
  GLP-1R/GCGR: 3

## His-Aib-Gln-Gly-Thr-Phe-Thr-Ser-Asp-Lys(PEG2-PEG2-Glu-CO(CH2)14CH3)-Ser-Lys-Tyr-Leu-Asp-Glu-Arg-Arg-Ala-Gln-Asp-Phe-Val-Gln-Trp-Leu-Leu-Asp-Gly-Gly-Pro-Ser-Ser-Gly-Ala-Pro-Pro-Pro-Ser-NH2 [Compound 19]
Human GLP-1R
  GLP-1R/GCGR: 0.25
Male C57B1/6J mice; P<0.05
  AUC of blood glucose in all four OGTT curve periods (0-480 min) compared with carrier (PBS): significantly decreased
Male C57B1/6J mice; male C57B1/6J mice
  effect on oral glucose tolerance: significantly reduced the oral glucose tolerance
